The results in this text go back to ChEMBL document CHEMBL1201862, “PubChem BioAssay data set” (2004).

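Results reflect a 48-hour exposure of cells in 96-well plates to compound at five concentrations. GI50: concentration for 50% inhibition of growth.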 Activity calls are given as the source filed them. Rule as the data show it: active = GI50 up to about 1.1 µM and inactive = higher. A value given as a limit tells only on which side of the number the result lay.

Some test systems named below: CCRF-CEM; TK-10; UACC-257; SK-MEL-2; HOP-62; PC-3; MOLT-4; MCF7; MDA-N; A549; U-251; UACC-62; OVCAR-5; NCI-H23; 786-0; MDA-MB-435; SF-295; SNB-19; NCI-H460.
Assay in all cases: NCI-60 cell line screen, 48 h

For the compound `C[C@@H](C(=O)O)N1C(c2ccco2)=C(/C(C=O)=C\c2ccco2)C(=O)/C1=C\c1ccco1`, the GI50 with CCRF-CEM, in the test with TK-10, in the test on UACC-257, with SK-MEL-2, in the test on HOP-62 and with PC-3 was > 100 µM (inactive) throughout. Further, the GI50 with MOLT-4, in the test on MCF7, in the test with MDA-N, in the test with A549, with U-251 and with UACC-62 was > 100 µM (inactive) throughout. Besides, the GI50 with OVCAR-5, in the test with NCI-H23, with 786-0, in the test with MDA-MB-435, in the test on SF-295 and in the test with SNB-19 was > 100 µM (inactive) in each case.

As for `CN1C(=O)C(O)CC1c1ccccc1F` (stereo not drawn), the GI50 in the test on NCI-H460, in the test with CCRF-CEM, with UACC-257, in the test on SK-MEL-2, with HOP-62 and in the test with PC-3 was > 100 µM (inactive) throughout. The GI50 with MOLT-4, in the test with MCF7, in the test with MDA-N, with A549, in the test on U-251 and in the test on UACC-62 was > 100 µM (inactive) in each case. Besides, the GI50 in the test on OVCAR-5, in the test on NCI-H23, with 786-0, in the test on MDA-MB-435, in the test with SF-295 and with SNB-19 was > 100 µM (inactive) each time.

Turning to `CCCCSC1=N/C(=C\c2ccc(N(C)C)cc2)C(=O)N1`, the GI50 in the test with NCI-H460 is 20.8 µM (inactive); in the test on CCRF-CEM, > 100 µM (inactive); in the test on TK-10 it was > 100 µM (inactive); in the test on UACC-257 it was 20.4 µM (inactive); in the test with HOP-62, 46.2 µM (inactive); in the test on PC-3, 0.256 µM (active). For the same compound, the GI50 is 57.5 µM (inactive) in the test with MOLT-4; 30.5 µM (inactive) in the test with MCF7; 33.6 µM (inactive) with MDA-N; 17.3 µM (inactive) in the test on A549; 18.4 µM (inactive) with U-251; 20.7 µM (inactive) with UACC-62. Besides, the GI50 was 24.4 µM (inactive) in the test on OVCAR-5; 67.9 µM (inactive) with NCI-H23; 17.9 µM (inactive) with 786-0; 28.6 µM (inactive) with MDA-MB-435; 28.4 µM (inactive) with SF-295; 31.7 µM (inactive) in the test with SNB-19.

Take `Nc1nc(Cl)c(/C=N\O)c(NCC2(CO)CC(=O)C2)n1`: the GI50 with NCI-H460 was 67.3 µM (inactive); with CCRF-CEM, 41.7 µM (inactive); with TK-10 it was > 100 µM (inactive); in the test on UACC-257, 58.3 µM (inactive); in the test with HOP-62 it was 76.9 µM (inactive); in the test on PC-3 it was 80.2 µM (inactive). The GI50 with MOLT-4 was 31.8 µM (inactive); in the test on MCF7, 52.5 µM (inactive); in the test with MDA-N, 96.4 µM (inactive); with A549, 30.8 µM (inactive); with U-251, > 100 µM (inactive); with OVCAR-5, 85.3 µM (inactive). The GI50 with NCI-H23 was 36.4 µM (inactive); in the test with 786-0, 49.1 µM (inactive); in the test on MDA-MB-435 it was 95.1 µM (inactive); in the test with SF-295, 56 µM (inactive); in the test on SNB-19 it was > 100 µM (inactive).

Consider `O=C(NN1C(=O)/C(=C/c2ccc(Cl)cc2)N=C1c1ccccc1)c1c(Cl)c(Cl)c(Cl)c(Cl)c1-c1nc2ccccc2[nH]1`, for which the GI50 is < 0.01 µM (active) with NCI-H460; 12.1 µM (inactive) with CCRF-CEM; 18.6 µM (inactive) in the test on SK-MEL-2; < 0.01 µM (active) in the test with HOP-62; 20.2 µM (inactive) with PC-3; 6.93 µM (inactive) in the test on MOLT-4. The GI50 in the test with MCF7 was 9.91 µM (inactive); in the test with MDA-N, 3.84 µM (inactive); in the test on A549, 5.98 µM (inactive); in the test with UACC-62 it was 10.7 µM (inactive); in the test on OVCAR-5 it was 29.1 µM (inactive); in the test with NCI-H23, 13.4 µM (inactive). For the same compound, the GI50 was 18.5 µM (inactive) with 786-0, 2.8 µM (inactive) in the test with MDA-MB-435, < 0.01 µM (active) in the test on SF-295 and 22.1 µM (inactive) with SNB-19.

On to `N#Cc1c(N)[nH]c(=S)c(C#N)c1-c1cccc(Cl)c1`, for which the GI50 was 32.5 µM (inactive) in the test with NCI-H460; 65.2 µM (inactive) in the test with TK-10; 36.3 µM (inactive) with UACC-257; 20.3 µM (inactive) with SK-MEL-2; 42.4 µM (inactive) in the test on HOP-62; 21.8 µM (inactive) with PC-3. Moreover, the GI50 is 18.4 µM (inactive) in the test on MOLT-4; 32.3 µM (inactive) with MCF7; 18.2 µM (inactive) in the test on MDA-N; 63.7 µM (inactive) in the test on A549; 25.9 µM (inactive) with U-251; 29.6 µM (inactive) in the test with UACC-62. Besides, the GI50 is > 100 µM (inactive) with OVCAR-5; 71.9 µM (inactive) in the test on NCI-H23; 18.6 µM (inactive) in the test with 786-0; 21.4 µM (inactive) in the test on MDA-MB-435; 34.9 µM (inactive) in the test on SF-295; 56.2 µM (inactive) with SNB-19.

`Cc1ccccc1OC(C)C(=O)NN1C(=O)CSC1c1ccc(Cl)cc1` (stereo not drawn): the GI50 with NCI-H460 is 26.1 µM (inactive); in the test on TK-10 it was 47.4 µM (inactive); with UACC-257 it was 55 µM (inactive); in the test on SK-MEL-2, > 53.7 µM (inactive); with HOP-62, 21 µM (inactive); in the test on PC-3, 35.7 µM (inactive). For the same compound, the GI50 with MOLT-4 is 22.1 µM (inactive); in the test with MCF7 it was 32.1 µM (inactive); with MDA-N, 60.3 µM (inactive); with A549, 30.2 µM (inactive); in the test with U-251, 30 µM (inactive); in the test on UACC-62, 58.9 µM (inactive). The GI50 with OVCAR-5 is 54.6 µM (inactive); in the test on NCI-H23, 56.1 µM (inactive); in the test with 786-0, 18.2 µM (inactive); in the test with MDA-MB-435, 57.9 µM (inactive); in the test on SF-295, 25.6 µM (inactive); in the test with SNB-19, 59.2 µM (inactive).

With `CC(C)C1OC2(C)OC(=N)C1(C#N)C(C#N)(C#N)C2C` (stereo not drawn), the GI50 with NCI-H460 is 15.8 µM (inactive); in the test with CCRF-CEM it was 16 µM (inactive); with TK-10, 47.1 µM (inactive); in the test with UACC-257 it was 28.5 µM (inactive); in the test with SK-MEL-2 it was 17.6 µM (inactive); with PC-3, 24.6 µM (inactive). The GI50 was 30.1 µM (inactive) in the test with MOLT-4; 18.7 µM (inactive) in the test with MCF7; 15.2 µM (inactive) in the test with MDA-N; > 100 µM (inactive) in the test with A549; 24.2 µM (inactive) with U-251; 27.6 µM (inactive) with UACC-62. The GI50 in the test with OVCAR-5 was 25.6 µM (inactive); in the test with NCI-H23 it was 30.6 µM (inactive); with 786-0, 19.4 µM (inactive); in the test on MDA-MB-435 it was 37.8 µM (inactive); with SF-295, > 100 µM (inactive); in the test on SNB-19 it was > 10 µM (inactive).

Consider `COc1ccc(C2C3=C(N=C4SC(C(C)=O)=C(C)N42)c2ccccc2CC3)cc1` (stereo not drawn), for which the GI50 in the test with CCRF-CEM is 28.8 µM (inactive); in the test with UACC-257, 73.3 µM (inactive); with SK-MEL-2, > 100 µM (inactive); with HOP-62, > 100 µM (inactive); with PC-3, > 100 µM (inactive); with MCF7, 92.7 µM (inactive). The GI50 was 21.1 µM (inactive) with MDA-N; 83 µM (inactive) with A549; 57.9 µM (inactive) with U-251; 45.7 µM (inactive) with UACC-62; > 100 µM (inactive) in the test on OVCAR-5; 80 µM (inactive) in the test with NCI-H23. Also, the GI50 with 786-0, in the test with MDA-MB-435, in the test with SF-295 and in the test with SNB-19 was > 100 µM (inactive) throughout.

As to `N#CC(Nc1ccccc1)c1ccc(C(C#N)Nc2ccccc2)cc1` (stereo not drawn), the GI50 in the test with NCI-H460 was 44.6 µM (inactive); in the test with CCRF-CEM, 5.07 µM (inactive); in the test with TK-10, 28.4 µM (inactive); in the test on UACC-257, 81.3 µM (inactive); in the test with SK-MEL-2, > 100 µM (inactive); with PC-3 it was 28.8 µM (inactive). The GI50 was 32.2 µM (inactive) in the test on MOLT-4; 29 µM (inactive) in the test on MCF7; 13.2 µM (inactive) in the test on MDA-N; > 100 µM (inactive) in the test on A549; 25.4 µM (inactive) in the test on U-251; 3.57 µM (inactive) in the test on UACC-62. Moreover, the GI50 in the test with OVCAR-5 was > 100 µM (inactive); in the test on NCI-H23, 41.5 µM (inactive); in the test with 786-0 it was 36.5 µM (inactive); in the test with MDA-MB-435 it was 13.7 µM (inactive); in the test on SF-295, 40 µM (inactive); with SNB-19, 44.5 µM (inactive).

As for `S=c1[nH]nc(Cn2c3ccc(Br)cc3c3nc4ccccc4nc32)n1C1CCCCC1`, the GI50 with NCI-H460 is 20.2 µM (inactive); with CCRF-CEM, 25.6 µM (inactive); in the test with TK-10 it was > 47.8 µM (inactive); in the test on UACC-257, 31.6 µM (inactive); in the test on SK-MEL-2, 23.1 µM (inactive); in the test with HOP-62 it was 18.6 µM (inactive). Further, the GI50 with PC-3 is 20.4 µM (inactive); with MCF7 it was 16.7 µM (inactive); with MDA-N it was 37.5 µM (inactive); in the test on A549 it was 21.2 µM (inactive); in the test on U-251, 18.5 µM (inactive); in the test on UACC-62 it was 16.1 µM (inactive). For the same compound, the GI50 in the test on OVCAR-5 is 32.5 µM (inactive); in the test with NCI-H23 it was 13.8 µM (inactive); in the test with 786-0, 20.7 µM (inactive); in the test with MDA-MB-435, 20.3 µM (inactive); in the test on SF-295 it was 16.7 µM (inactive); in the test on SNB-19, 43.5 µM (inactive).
